Experimental data published in US20210180080A1, “USE OF ALS MUTANT PROTEIN AND THE GENE THEREOF IN PLANT BREEDING BASED ON GENE EDITING TECHNOLOGY” (priority 2018, published 2021).

Assays:
Type in all cases: in vivo
[1] = tested on: wild-type rice Nanjing 9108; test: herbicide resistance identification by spraying rice seedlings, wild type; conditions: investigated 14 days later
From the text: (§1) The homozygous mutant T1 individual plants identified in Examples 2 and 3 were propagated, and the seeds were harvested in the artificial climate room of Nanjing Jiangsu Academy of Agricultural Sciences, which were the T2 generation; the T2 generation was continued to be propagated to obtain T3 Generation seeds. After accelerating the germination of the harvested T3 seeds, they were sown at a density of 450 kg hm^−2. When the rice growed to two leaves and one heart, the field water was drained and imazethapyr (aqueous agent, purchased from Nanjing Aijin Agrochemical Co., Ltd.) was sprayed at 210, 700, and 1400 g(a.i.) hm^−2 concentrations, respectively, with the water as the control group. After spraying for 24 h, the water was rehydrated, and the resistance was investigated 14 days later.
(§2) After accelerating germination of the T3 generation seeds in Example 4, they were sown at a density of 450 kg hm^−2. When the rice growed to two leaves and one heart, water in the field water was drained and Bailongtong (aqueous agent, purchased from Nanjing Aijin Agrochemical Co., Ltd.) was sprayed at 240, 2400, 4800 g(ai) hm^−2 concentration with water as the control group. After spraying for 24 h, the water was rehydrated, and the resistance was investigated 14 days later.

[2] = tested on: transgenic lines A1-A58 of rice Nanjing 9108; test: herbicide screening of T1 generation transgenic lines; conditions: 210 g (a.i.) hm^−2, investigated after 14 days
Protocol: The T0 generation plants were harvested as an individual plant, and the harvested seeds were germinated and sown at a density of 450 kg hm^−2. When the rice growed to two leaves and one heart, the water was drained from the field and imazethapyr (aqueous agent, purchased from Nanjing Aijin Agrochemical Co., Ltd.) was sprayed at 210 g (a.i.) hm^−2. Rehydrate after spraying for 24 h, and investigate resistance after 14 days. Plants with all withered or dead leaves were susceptibleness, while the healthy and viable plants were resistance. […] Therefore, the frequency of obtaining herbicide resistant strains in this study was 1.72%. According to reports, the mutation frequency of herbicide resistant rice lines obtained by chemical mutagenesis was 0.00003^˜0.006%.

[3] = tested on: Mutant A51 rice (ALS amino acid 628 glycine to tryptophan); test: herbicide resistance identification by spraying rice seedlings, mutant; conditions: investigated 14 days later
From the text: as §1, §2

[4] = 210 g(a.i.) hm^−2 sprayed at two leaves and one heart
[5] = 210 g(a.i.) hm^−2 sprayed at two leaves and one heart, listed as Imazethapyr

CCc1cnc(C2=NC(C)(C(C)C)C(=O)N2)c(C(=O)O)c1 (stereo not drawn) [imazethapyr]
resistance (survival) of wild-type plants after spraying [1, 4]: all died | resistance (survival) of wild-type plants after spraying [1, 5]: appear to die in whole | resistance (survival) of wild-type plants after spraying ([1]; 700 g(a.i.) hm^−2 sprayed at two leaves and one heart): all died | resistance (survival) of wild-type plants after spraying ([1]; 1400 g(a.i.) hm^−2 sprayed at two leaves and one heart): all died | resistance of A51 line plants after spraying ([2]; A51 line, T1 generation): survived and showed herbicide resistance | resistance of the other 57 lines after spraying ([2]; the other 57 of lines A1-A58, T1 generation): died | resistance (survival) of mutant plants after spraying [3, 4]: could survive | resistance (survival) of mutant plants after spraying [3, 5]: still grow and develop normally | resistance (survival) of mutant plants after spraying ([3]; 240 g(ai) hm^−2 sprayed at two leaves and one heart): survived | resistance (survival) of mutant plants after spraying ([3]; 700 g(a.i.) hm^−2 sprayed at two leaves and one heart, T3 generation): could survive | resistance (survival) of mutant plants after spraying ([3]; 1400 g(a.i.) hm^−2 sprayed at two leaves and one heart, T3 generation): could survive | resistance (survival) of mutant plants after spraying ([3]; 2400 g(ai) hm^−2 sprayed at two leaves and one heart, T3 generation): survived
